Literature values as cited in patent publication US20090012284A1, “Process for the Preparation of a Piroxicam: Betacyclodextrin Inclusion Compound” (Chiesi Farmaceutici S.p.A., priority 2004, published 2009).

Settings: pH 5, 37° C.

Compound: CN1C(C(=O)Nc2ccccn2)=C(O)c2ccccc2S1(=O)=O [Piroxicam]
- solubility in water: 0.003%
